Measured values taken from US12319709B2, “Diaryl trehalose compounds and uses thereof” (THE UNIVERSITY OF MONTANA, priority 2018, dated 2025).

Legend:
[1] = test system: peripheral blood mononuclear cells (PBMCs); assay: IL-6 induction in fresh human PBMCs; format: cell-based; settings: for IL-6 production / activity in fresh PBMCs from multiple donors (in words): compounds in DMSO serially diluted in media, supernatants 18 h after treatment; for Maximum cytokine response h-IL-6 / Minimal Effective Concentration h-IL-6: human IL-6, NR = no response
Experimental: (§1) Tumor necrosis factor alpha (TNFα) and IL-6 production in peripheral blood mononuclear cells (PBMCs) was measured after exposure to various concentrations of the DAT compounds synthesized as shown above. Initial studies focused on two different methods of delivery of the DAT compounds to PBMC cultures. In the first delivery method, the indicated derivative compound was dissolved in isopropanol, serially diluted, and then dried to the bottom of a tissue culture plate. In the second delivery method, the indicated derivative compound was dissolved in DMSO and serially diluted into tissue culture media. In each method, PBMCs were added to the compounds and incubated at 37° C. TNFα (FIG. 1A) and IL-6 (FIG. 1B) were measured after 18-24 hours after treatment by ELISA assay.
The isolated PBMCs were exposed to increasing concentrations of the indicated compounds resuspended in DMSO and serially diluted in media. IL-6 levels were determined from supernatants eighteen hours after treatment (FIG. 3).

RAW264.7 cells = assay: Cytokine (TNFα) response of mouse macrophage cell line; Table 2 'Murine'; format: cell-based; set-up: Maximum cytokine response Murine: unit not given here; settings: NR = no response
Experimental: Compounds were also tested in a mouse macrophage cell line (FIG. 4B). RAW264.7 cells were subjected to increasing concentrations of the compounds and assessed for production of the cytokine TNFα.

[2] = test system: peripheral blood mononuclear cells (PBMCs); assay: Cytokine analysis of supernatants of stimulated, freshly prepared PBMCs; format: cell-based, human; settings: compounds solubilized in DMSO
Experimental: as §1
Supernatants from the freshly prepared PBMCs stimulated with DAT compounds solubilized in DMSO (Example 5A) were analyzed for the cytokines that help drive Th1 cell or Th17 cell adaptive immune responses; IFNγ, IL-12 p70, IL-6, IL-1β, and IL-23. Minimal amounts of IL-12p70 were detected and IFNγ was undetectable. Therefore, both are not reported.

Balb/c mice = assay: i.m. immunization of Balb/c mice with M72 antigen and liposomal adjuvant; splenocyte restimulation, intracellular cytokine staining; format: in vivo, mouse; settings: liposomal formulation, M72 restimulated splenocytes; TDB at highest dose

Compound | IL-6 production / activity in fresh PBMCs from multiple donors (in words) [1] | Maximum cytokine response Murine (RAW264.7 cells) | Minimal Effective Concentration Murine (RAW264.7 cells) | TNFα response in PBMCs (in words) [2] | Maximum cytokine response h-IL-6 [1] | Minimal Effective Concentration h-IL-6 [1] | Maximum cytokine response Murine (RAW264.7 cells; listed as 1015) | Minimal Effective Concentration Murine (RAW264.7 cells; listed as 1015) | antigen-specific CD4+ and CD8+ IL-17A producing cells (Th17 response) (Balb/c mice)
CC(C)c1cc(C(=O)OC[C@H]2O[C@H](O[C@H]3O[C@H](COC(=O)c4cc(C(C)C)cc(C(C)C)c4O)[C@@H](O)[C@H](O)[C@H]3O)[C@H](O)[C@@H](O)[C@@H]2O)c(O)c(C(C)C)c1 [UM1023, 6,6′-bis-(3,5-di-iso-propylsalisate)-α,α-trehalose] | lower activity | 2.5 | 0.45 µM | higher responding |  |  |  |  | 
COc1cc(/C=C/C(=O)OC[C@H]2O[C@H](O[C@H]3O[C@H](COC(=O)/C=C/c4cc(OC)c(OC)c(OC)c4)[C@@H](O)[C@H](O)[C@H]3O)[C@H](O)[C@@H](O)[C@@H]2O)cc(OC)c1OC [UM1020] |  | 3.2 | 33.3 µM | higher responding | 1.5 OD | 333 µM |  |  | 
COc1cc(OC)cc(C(=O)OC[C@H]2O[C@H](O[C@H]3O[C@H](COC(=O)c4cc(OC)cc(OC)c4)[C@@H](O)[C@H](O)[C@H]3O)[C@H](O)[C@@H](O)[C@@H]2O)c1 [UM1015, 6,6′-bis-(3,5-dimethoxybenzoate)-α,α-trehalose] | potent, robust activity in only 3 of 5 donors |  |  | higher responding | 3.6 OD | 111 µM | 3.5 | 12.3 µM | 
O=C(/C=C/c1ccc(O)c(O)c1)OC[C@H]1O[C@H](O[C@H]2O[C@H](COC(=O)/C=C/c3ccc(O)c(O)c3)[C@@H](O)[C@H](O)[C@H]2O)[C@H](O)[C@@H](O)[C@@H]1O [UM1021] | induced some cytokine production | 3 | 333 µM | higher responding | 2 OD | 333 µM |  |  | 
O=C(OC[C@H]1O[C@H](O[C@H]2O[C@H](COC(=O)c3cc([N+](=O)[O-])cc([N+](=O)[O-])c3)[C@@H](O)[C@H](O)[C@H]2O)[C@H](O)[C@@H](O)[C@@H]1O)c1cc([N+](=O)[O-])cc([N+](=O)[O-])c1 [UM1080] |  | 1 | 33 µM |  | 2 OD | 100 µM |  |  | 
CCCOc1cc(C(=O)OC[C@H]2O[C@H](O[C@H]3O[C@H](COC(=O)c4cc(OCCC)c(OCCC)c(OCCC)c4)[C@@H](O)[C@H](O)[C@H]3O)[C@H](O)[C@@H](O)[C@@H]2O)cc(OCCC)c1OCCC [UM1095] |  | 0.001 | 3.4 µM |  | 3.3 OD | 3.7 µM |  |  | 
Cc1cc(C)cc(C(=O)OCC2OC(OC3OC(COC(=O)c4cc(C)cc(C)c4)C(O)C(O)C3O)C(O)C(O)C2O)c1 (stereo not shown) [UM1016] |  | 3 | 4.1 µM |  | 1.5 OD | 1000 µM |  |  | 
CCCCCCCCCCCCCCCCCCCCCC(=O)OC[C@H]1O[C@H](O[C@H]2O[C@H](COC(=O)CCCCCCCCCCCCCCCCCCCCC)[C@@H](O)[C@H](O)[C@H]2O)[C@H](O)[C@@H](O)[C@@H]1O [TDB, trehalose dibehenate, reference compound] |  |  |  |  |  |  |  |  | induced some IL-17A
CCCCCCCCOc1cc(OCCCCCCCC)cc(C(=O)OC[C@H]2O[C@H](O[C@H]3O[C@H](COC(=O)c4cc(OCCCCCCCC)cc(OCCCCCCCC)c4)[C@@H](O)[C@H](O)[C@H]3O)[C@H](O)[C@@H](O)[C@@H]2O)c1 [UM1093] |  | <.001 | 3.4 µM |  | 3.4 OD | 1.2 µM |  |  | 
COc1ccc(/C=C/C(=O)OC[C@H]2O[C@H](O[C@H]3O[C@H](COC(=O)/C=C/c4ccc(OC)c(OC)c4)[C@@H](O)[C@H](O)[C@H]3O)[C@H](O)[C@@H](O)[C@@H]2O)cc1OC [UM1019] |  | 2.3 | 111 µM | higher responding | 2 OD | 333 µM |  |  | 
O=C(OC[C@H]1O[C@H](O[C@H]2O[C@H](COC(=O)c3ccccc3C(F)(F)F)[C@@H](O)[C@H](O)[C@H]2O)[C@H](O)[C@@H](O)[C@@H]1O)c1ccccc1C(F)(F)F [UM1042] |  | 0.9 | 11 µM |  | 2 OD | 50 µM |  |  | 
COc1cc(C)c(C(=O)OC[C@H]2O[C@H](O[C@H]3O[C@H](COC(=O)c4c(C)cc(OC)cc4OC)[C@@H](O)[C@H](O)[C@H]3O)[C@H](O)[C@@H](O)[C@@H]2O)c(OC)c1 [UM1022] | reproducibly induced potent, robust IL-6 production | 3.3 | 37 µM | higher responding | 3 OD | 333 µM |  |  | 
CCCCOc1cc(OCCCC)cc(C(=O)OC[C@H]2O[C@H](O[C@H]3O[C@H](COC(=O)c4cc(OCCCC)cc(OCCCC)c4)[C@@H](O)[C@H](O)[C@H]3O)[C@H](O)[C@@H](O)[C@@H]2O)c1 [UM1051] |  | 1.3 | 0.13 µM |  | 2.5 OD | 6 µM |  |  | 
CCCCCCCCCCOc1cc(OCCCCCCCCCC)cc(C(=O)OC[C@H]2O[C@H](O[C@H]3O[C@H](COC(=O)c4cc(OCCCCCCCCCC)cc(OCCCCCCCCCC)c4)[C@@H](O)[C@H](O)[C@H]3O)[C@H](O)[C@@H](O)[C@@H]2O)c1 [UM1094] |  | <.001 | 3.4 µM |  | 3.4 OD | 1.2 µM |  |  | 
Cc1cccc(Nc2ccccc2C(=O)OC[C@H]2O[C@H](O[C@H]3O[C@H](COC(=O)c4ccccc4Nc4cccc(C)c4C)[C@@H](O)[C@H](O)[C@H]3O)[C@H](O)[C@@H](O)[C@@H]2O)c1C [UM1074] |  | 2 | 1.2 µM |  | 3.5 OD | 33.3 µM |  |  | 
COc1cc(Br)c(CC(=O)OC[C@H]2O[C@H](O[C@H]3O[C@H](COC(=O)Cc4cc(OC)c(OC)cc4Br)[C@@H](O)[C@H](O)[C@H]3O)[C@H](O)[C@@H](O)[C@@H]2O)cc1OC [UM1082] |  | 1.7 | 33 µM |  | 0.5 OD | 100 µM |  |  | 
CCOc1cc(C(=O)OCC2OC(OC3OC(COC(=O)c4cc(OCC)c(OCC)c(OCC)c4)C(O)C(O)C3O)C(O)C(O)C2O)cc(OCC)c1OCC (stereo not shown) [UM1049] |  | 1.3 | 0.13 µM |  | 3.3 OD | 2 µM |  |  | 
O=C(OC[C@H]1O[C@H](O[C@H]2O[C@H](COC(=O)c3cc(C(F)(F)F)ccc3C(F)(F)F)[C@@H](O)[C@H](O)[C@H]2O)[C@H](O)[C@@H](O)[C@@H]1O)c1cc(C(F)(F)F)ccc1C(F)(F)F [UM1066] |  | 3 | 100 µM |  | 2.6 OD | 33.3 µM |  |  | 
O=C(OC[C@H]1O[C@H](O[C@H]2O[C@H](COC(=O)c3ccccc3Nc3ccccc3)[C@@H](O)[C@H](O)[C@H]2O)[C@H](O)[C@@H](O)[C@@H]1O)c1ccccc1Nc1ccccc1 [UM1075] |  | 2.2 | 3.7 µM |  | 3.5 OD | 20 µM |  |  | 
CC(C)(C)c1cc(C(=O)NC[C@H]2O[C@H](O[C@H]3O[C@H](CNC(=O)c4cc(C(C)(C)C)cc(C(C)(C)C)c4O)[C@@H](O)[C@H](O)[C@H]3O)[C@H](O)[C@@H](O)[C@@H]2O)c(O)c(C(C)(C)C)c1 [UM1088] |  | 1.3 | 0.4 µM |  | 3.5 OD | 2.5 µM |  |  | 
